{"source": "patent US20210353658A1", "about": "“COMPOSITION AND METHOD OF INHIBITING CORTISONE REDUCTASE” (Amorepacific Corporation, priority 2018, published 2021)", "key": {"[1]": {"target": "T1, 11β-hydroxysteroid dehydrogenase type 1 (Homo sapiens, UniProt P28845)", "T1 construct": "endogenous in cells; host or cells: normal human epidermal keratinocytes (NHEK), UVB-irradiated", "T1 sequence (P28845 whole entry)": "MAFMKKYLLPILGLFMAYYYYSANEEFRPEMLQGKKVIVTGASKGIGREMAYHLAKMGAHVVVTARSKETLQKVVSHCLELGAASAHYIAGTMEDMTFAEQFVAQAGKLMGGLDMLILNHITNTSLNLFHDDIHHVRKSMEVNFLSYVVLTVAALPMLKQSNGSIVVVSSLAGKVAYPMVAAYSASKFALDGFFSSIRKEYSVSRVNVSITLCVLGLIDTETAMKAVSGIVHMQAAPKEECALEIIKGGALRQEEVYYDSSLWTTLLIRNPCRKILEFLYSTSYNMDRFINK", "assay": "Cortisone reductase activity inhibition: cortisol concentration in the culture solution of UVB-irradiated, cortisone-treated NHEK, by ELISA", "type": "cell-based", "conditions": "UVB 25 mJ/cm^2, cortisone 10 μg/ml, compound 10 μg/ml, cultured 4 days, ELISA (FIG. 1)", "method": "(§1) Normal human epidermal keratinocytes (NHEK) were cultured in a 6-well plate incubator. Specifically, the normal human epidermal keratinocytes (NHEK) were cultured for 4 days by replacing it with phosphate-buffered saline (PBS) after 24 hours to irradiate UVB (25 mJ/cm^2) and adding cortisone (10 μg/ml) and a compound represented by Chemical Formula 1-1 (glucocerebrosides (soy, 98%), Avanti Polar Lipids, Inc.) to NHEK culture media.\nSubsequently, the cell culture solution was collected to measure a cortisol concentration in an ELISA method, and the results are shown in FIG. 1. […] Accordingly, a composition including the compound represented by Chemical Formula 1-1 as an active ingredient according to an embodiment turned out to inhibit activity of 11β-hydroxysteroid dehydrogenase type 1 that is cortisone reductase."}, "[2]": {"test_system": "keratinocyte differentiation markers of KRT1 and KRT10", "assay": "RT-qPCR (TAQMAN real-time PCR) gene expression of keratinocyte differentiation markers in UVB-irradiated NHEK", "type": "cell-based, human", "conditions": "compound 10 μg/ml", "method": "as §1\nIn addition, the normal human epidermal keratinocytes (NHEK) were treated with TRIZOL to separate RNA, which was used to synthesize cDNA through RT-PCR (reverse transcriptional polymerase chain reaction). The synthesized cDNA was used to perform TAQMAN® real-time PCR and measure gene expression amounts of keratinocyte differentiation markers of KRT1 and KRT10, and the results are shown in FIGS. 2 and 3. Referring to FIGS. 2 and 3, in the well to which the compound represented by Chemical Formula 1 (10 μg/ml) was added, the gene expression of the keratinocyte differentiation markers (KRT10, KRT1) inhibited by ultraviolet (UVB) rays in the keratinocytes was increased. […]"}}}
{"smiles": "CCCCCCCCC/C=C/CC/C=C/[C@@H](O)[C@H](CO[C@@H]1OC(CO)[C@H](O)C(O)C1O)NC(=O)C(O)CCCCCCCCCCCCCC", "note": "(stereo partly drawn) [Chemical Formula 1-1, glucocerebrosides (soy, 98%)]", "values": [{"measurement": "cortisol concentration in cell culture solution", "setting": "[1]", "result": "greatly did not increase"}, {"measurement": "gene expression of keratinocyte differentiation marker KRT10 inhibited by UVB", "setting": "[2]; RT-qPCR (FIG. 2)", "result": "increased"}, {"measurement": "gene expression of keratinocyte differentiation marker KRT1 inhibited by UVB", "setting": "[2]; RT-qPCR (FIG. 3)", "result": "increased"}]}
